In ChEMBL document CHEMBL1201862, “PubChem BioAssay data set” (2004):
Activity calls are given as the source filed them.

Tests used:
Cytochrome P450 2C9 = Cytochrome P450 2C9 (Homo sapiens, UniProt P11712)
Cytochrome P450 3A4 = Cytochrome P450 3A4 (Homo sapiens, UniProt P08684);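 note: CYP3A4 tested as one member of a cytochrome P450 panel screen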
Cytochrome P450 2C19 = Cytochrome P450 2C19 (Homo sapiens, UniProt P33261); assay: Cytochrome panel assay with activity outcomes. Panel member name: p450-cyp2c19 Compounds with AC50 equal or less than 10 uM are considered active; assay type: functional
Sequence of Cytochrome P450 2C19 (P33261 whole entry): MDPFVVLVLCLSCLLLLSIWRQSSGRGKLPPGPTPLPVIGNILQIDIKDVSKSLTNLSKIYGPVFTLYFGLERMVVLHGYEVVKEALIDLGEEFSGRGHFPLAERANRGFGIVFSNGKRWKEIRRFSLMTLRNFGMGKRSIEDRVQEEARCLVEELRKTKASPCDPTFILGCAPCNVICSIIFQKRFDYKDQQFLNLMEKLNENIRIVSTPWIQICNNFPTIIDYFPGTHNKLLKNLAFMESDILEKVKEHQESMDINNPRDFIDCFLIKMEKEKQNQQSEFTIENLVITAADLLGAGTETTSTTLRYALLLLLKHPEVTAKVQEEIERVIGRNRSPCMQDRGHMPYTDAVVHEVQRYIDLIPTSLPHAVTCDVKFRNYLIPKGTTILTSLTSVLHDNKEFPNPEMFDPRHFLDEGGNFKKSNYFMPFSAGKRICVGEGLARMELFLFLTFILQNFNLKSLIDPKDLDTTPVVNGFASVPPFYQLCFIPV

Cytochrome P450 2D6 [1] = biological target: T1, Cytochrome P450 2D6 (Homo sapiens, UniProt P10635);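 note: CYP2D6 member of a cytochrome P450 panel assay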
T1 sequence (P10635 whole entry): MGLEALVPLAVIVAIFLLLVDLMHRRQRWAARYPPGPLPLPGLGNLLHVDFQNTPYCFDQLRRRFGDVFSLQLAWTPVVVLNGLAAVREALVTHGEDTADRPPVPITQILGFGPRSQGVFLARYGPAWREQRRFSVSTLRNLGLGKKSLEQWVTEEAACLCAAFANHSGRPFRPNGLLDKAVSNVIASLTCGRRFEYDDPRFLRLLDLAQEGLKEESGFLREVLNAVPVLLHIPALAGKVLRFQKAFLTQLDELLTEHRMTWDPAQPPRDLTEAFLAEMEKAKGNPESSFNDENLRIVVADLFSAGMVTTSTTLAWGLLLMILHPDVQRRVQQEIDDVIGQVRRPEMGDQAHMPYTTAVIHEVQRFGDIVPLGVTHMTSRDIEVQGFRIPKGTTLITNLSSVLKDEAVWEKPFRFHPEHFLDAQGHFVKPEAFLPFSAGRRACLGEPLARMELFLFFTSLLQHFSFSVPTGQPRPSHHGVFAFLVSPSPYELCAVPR

Beta-galactosidase = Beta-galactosidase (Escherichia coli, UniProt Q8VNN2); assay: PubChem AID 485352; assay type: functional
Sequence of Beta-galactosidase (Q8VNN2 whole entry): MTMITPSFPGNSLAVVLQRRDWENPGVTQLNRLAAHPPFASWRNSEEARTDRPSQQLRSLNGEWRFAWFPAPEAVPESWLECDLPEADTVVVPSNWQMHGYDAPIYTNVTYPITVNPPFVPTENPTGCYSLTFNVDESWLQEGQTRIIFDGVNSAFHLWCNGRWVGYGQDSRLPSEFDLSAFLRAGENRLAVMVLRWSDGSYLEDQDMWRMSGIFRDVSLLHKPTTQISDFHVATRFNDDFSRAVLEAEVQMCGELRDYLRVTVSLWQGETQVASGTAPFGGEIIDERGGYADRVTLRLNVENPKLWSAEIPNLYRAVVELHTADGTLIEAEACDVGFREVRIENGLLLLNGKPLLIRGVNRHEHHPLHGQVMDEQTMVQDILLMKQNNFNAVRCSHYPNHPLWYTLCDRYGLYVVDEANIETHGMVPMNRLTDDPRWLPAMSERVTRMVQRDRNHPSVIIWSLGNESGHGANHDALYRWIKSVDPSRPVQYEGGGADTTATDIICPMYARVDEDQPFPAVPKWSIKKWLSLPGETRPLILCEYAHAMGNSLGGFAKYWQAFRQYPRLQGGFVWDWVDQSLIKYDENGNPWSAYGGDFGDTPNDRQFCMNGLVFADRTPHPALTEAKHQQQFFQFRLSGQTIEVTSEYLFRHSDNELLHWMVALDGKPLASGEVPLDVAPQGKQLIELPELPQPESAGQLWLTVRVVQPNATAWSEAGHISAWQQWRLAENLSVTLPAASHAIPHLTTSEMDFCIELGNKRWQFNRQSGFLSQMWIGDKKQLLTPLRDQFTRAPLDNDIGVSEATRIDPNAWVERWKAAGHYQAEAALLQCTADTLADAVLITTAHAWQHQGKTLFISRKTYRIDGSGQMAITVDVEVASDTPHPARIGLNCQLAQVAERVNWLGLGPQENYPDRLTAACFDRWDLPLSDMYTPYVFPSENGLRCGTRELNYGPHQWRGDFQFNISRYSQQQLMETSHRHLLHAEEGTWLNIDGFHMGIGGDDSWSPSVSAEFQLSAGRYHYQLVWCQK

[2] = biological target: T2, Type-1 angiotensin II receptor (Homo sapiens, UniProt P30556); assay: AT1 receptor antagonists, dose response, selectivity assay for APJ receptor antagonist project, cell-based, uHTS hits (AID 463214); assay type: functional;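 note: antagonist potency against angiotensin II stimulated AT1 response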
T2 sequence (P30556 whole entry): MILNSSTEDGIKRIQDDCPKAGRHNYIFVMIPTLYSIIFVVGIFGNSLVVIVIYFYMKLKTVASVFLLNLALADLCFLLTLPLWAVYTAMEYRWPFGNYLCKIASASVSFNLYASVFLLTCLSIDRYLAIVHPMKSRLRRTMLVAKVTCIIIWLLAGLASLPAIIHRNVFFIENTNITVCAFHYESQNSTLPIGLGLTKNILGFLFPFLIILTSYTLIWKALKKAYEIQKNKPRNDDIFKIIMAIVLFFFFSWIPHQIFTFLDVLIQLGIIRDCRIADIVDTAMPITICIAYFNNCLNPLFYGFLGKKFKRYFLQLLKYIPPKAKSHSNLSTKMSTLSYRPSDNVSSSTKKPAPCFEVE

[3] = biological target: T3, Heat shock factor protein 1 (Mus musculus, UniProt P38532); assay: HSF1 potentiators in luciferase reporter cells, confirmation, cell-based, NIH3T3, luminescence, dose retest (AID 435004); assay type: functional;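 note: stress induced by proteasome inhibitor MG132 added 30 min after compound; luciferase reporter driven by HSF1 response element in NIH3T3 cells; actives raise luminescence as potentiators of the MG132 stress response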
T3 sequence (P38532 whole entry): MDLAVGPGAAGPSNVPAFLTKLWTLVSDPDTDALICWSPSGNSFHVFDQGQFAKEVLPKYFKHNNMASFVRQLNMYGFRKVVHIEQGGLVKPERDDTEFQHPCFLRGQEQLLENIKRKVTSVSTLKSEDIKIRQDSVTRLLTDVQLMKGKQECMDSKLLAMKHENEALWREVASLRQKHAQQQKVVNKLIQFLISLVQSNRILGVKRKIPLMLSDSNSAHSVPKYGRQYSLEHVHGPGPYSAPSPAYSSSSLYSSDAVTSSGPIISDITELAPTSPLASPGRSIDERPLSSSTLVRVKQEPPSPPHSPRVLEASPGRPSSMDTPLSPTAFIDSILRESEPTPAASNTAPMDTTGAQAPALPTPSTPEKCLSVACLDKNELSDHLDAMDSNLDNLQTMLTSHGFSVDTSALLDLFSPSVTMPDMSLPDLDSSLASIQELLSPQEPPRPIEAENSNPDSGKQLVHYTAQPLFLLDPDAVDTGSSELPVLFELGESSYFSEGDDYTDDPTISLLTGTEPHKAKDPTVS

[4] = biological target: Delta-type opioid receptor (Homo sapiens, UniProt P41143); assay: Counterscreen for agonists of heterodimerization of the mu 1 (OPRM1) and delta 1 (OPRD1) opioid receptors: Luminescence-based cell-based high throughput dose response assay to identify agonists of OPRD1 homodimerization. [Related pubchem assays (depositor defined):AID504326, AID504355, AID504692, AID504904, AID504905]; assay type: functional
Sequence of Delta-type opioid receptor (P41143 whole entry): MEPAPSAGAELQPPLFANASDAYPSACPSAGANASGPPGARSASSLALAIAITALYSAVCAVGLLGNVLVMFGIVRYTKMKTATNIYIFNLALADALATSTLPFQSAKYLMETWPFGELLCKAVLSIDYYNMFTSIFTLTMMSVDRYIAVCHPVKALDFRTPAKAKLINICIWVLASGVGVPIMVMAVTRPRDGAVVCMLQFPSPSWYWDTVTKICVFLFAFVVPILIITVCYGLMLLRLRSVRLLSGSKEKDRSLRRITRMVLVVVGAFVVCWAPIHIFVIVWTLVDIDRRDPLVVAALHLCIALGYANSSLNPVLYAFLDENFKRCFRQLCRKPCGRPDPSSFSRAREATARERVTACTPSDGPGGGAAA

[5] = biological target: 5-hydroxytryptamine receptor 5A (Homo sapiens, UniProt P47898); assay: Counterscreen for agonists of OPRM1-OPRD1 heterodimerization: luminescence-based cell-based high throughput dose response assay to identify agonists of 5-hydroxytryptamine (serotonin) 5A receptor (HTR5A). [Related pubchem assays (depositor defined):AID504326, AID504355, AID504692, AID504904, AID504905]; assay type: functional
Sequence of 5-hydroxytryptamine receptor 5A (P47898 whole entry): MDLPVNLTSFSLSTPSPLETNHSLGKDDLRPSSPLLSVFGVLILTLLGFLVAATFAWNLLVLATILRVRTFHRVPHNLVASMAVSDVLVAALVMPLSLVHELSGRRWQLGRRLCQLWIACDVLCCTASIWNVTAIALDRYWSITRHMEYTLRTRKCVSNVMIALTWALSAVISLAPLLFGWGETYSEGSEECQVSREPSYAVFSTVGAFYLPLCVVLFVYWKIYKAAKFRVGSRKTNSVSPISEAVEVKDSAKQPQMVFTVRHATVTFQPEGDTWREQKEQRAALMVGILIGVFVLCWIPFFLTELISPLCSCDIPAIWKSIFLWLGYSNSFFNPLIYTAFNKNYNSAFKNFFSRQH

Mu-type opioid receptor = Mu-type opioid receptor (Homo sapiens, UniProt P35372); assay: Counterscreen for agonists of heterodimerization of the mu 1 (OPRM1) and delta 1 (OPRD1) opioid receptors: Luminescence-based cell-based high throughput dose response assay to identify agonists of OPRM1 homodimerization.; assay type: functional;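 note: U2OS cells expressing OPRM1 and beta-arrestin as split beta-galactosidase partners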
Sequence of Mu-type opioid receptor (P35372 whole entry): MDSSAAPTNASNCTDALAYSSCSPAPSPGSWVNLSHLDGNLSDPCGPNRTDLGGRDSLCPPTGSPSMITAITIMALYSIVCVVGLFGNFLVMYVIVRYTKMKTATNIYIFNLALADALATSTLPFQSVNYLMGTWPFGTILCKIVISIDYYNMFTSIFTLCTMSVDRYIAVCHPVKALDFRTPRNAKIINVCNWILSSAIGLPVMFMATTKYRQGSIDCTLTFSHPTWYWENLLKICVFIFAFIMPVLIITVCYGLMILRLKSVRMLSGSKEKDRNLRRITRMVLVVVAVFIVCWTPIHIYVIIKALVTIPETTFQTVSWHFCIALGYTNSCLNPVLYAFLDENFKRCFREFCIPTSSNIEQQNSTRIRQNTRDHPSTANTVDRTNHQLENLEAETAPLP

[6] = cytotoxicity toward NIH3T3 fibroblasts, dose response, counter-screen, cell-based, ATP luminescence, mouse fibroblasts (AID 2010); assay type: functional;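 note: cells exposed to compound for about 90 hours before reading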
[7] = biological target: T4, Ubiquitin-conjugating enzyme E2 N (Homo sapiens, UniProt P61088); assay type: functional
T4 sequence (P61088 whole entry): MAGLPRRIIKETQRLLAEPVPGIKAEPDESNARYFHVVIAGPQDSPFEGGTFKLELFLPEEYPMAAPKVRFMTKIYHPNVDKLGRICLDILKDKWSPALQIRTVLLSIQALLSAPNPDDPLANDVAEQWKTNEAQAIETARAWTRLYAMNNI

[8] = biological target: T5, DNA repair and recombination protein RAD54-like (Homo sapiens, UniProt Q92698); assay: inhibitors of human RAD54 branch migration, confirmation, biochemical, fluorescence, cherry-picked samples, dose series (AID 651657); assay type: functional
T5 sequence (Q92698 whole entry): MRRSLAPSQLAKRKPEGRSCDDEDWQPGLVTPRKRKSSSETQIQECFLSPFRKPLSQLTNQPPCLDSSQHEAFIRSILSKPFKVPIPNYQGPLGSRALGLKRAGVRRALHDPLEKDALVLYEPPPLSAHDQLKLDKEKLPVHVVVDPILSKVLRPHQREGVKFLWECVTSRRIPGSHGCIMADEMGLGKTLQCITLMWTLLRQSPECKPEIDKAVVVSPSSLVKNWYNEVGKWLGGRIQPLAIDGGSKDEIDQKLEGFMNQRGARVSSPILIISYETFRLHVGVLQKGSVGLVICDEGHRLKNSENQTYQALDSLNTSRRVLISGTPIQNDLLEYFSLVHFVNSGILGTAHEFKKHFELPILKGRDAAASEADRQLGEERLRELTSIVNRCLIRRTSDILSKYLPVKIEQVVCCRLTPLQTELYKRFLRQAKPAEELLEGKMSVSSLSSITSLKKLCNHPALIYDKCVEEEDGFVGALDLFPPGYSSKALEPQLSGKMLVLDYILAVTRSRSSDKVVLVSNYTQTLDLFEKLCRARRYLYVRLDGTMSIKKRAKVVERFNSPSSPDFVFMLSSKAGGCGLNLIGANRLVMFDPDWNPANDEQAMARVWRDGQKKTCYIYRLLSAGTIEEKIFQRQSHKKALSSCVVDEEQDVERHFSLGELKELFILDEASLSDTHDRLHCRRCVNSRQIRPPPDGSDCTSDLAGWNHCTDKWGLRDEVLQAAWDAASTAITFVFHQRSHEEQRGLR

[9] = biological target: T4, Ubiquitin-conjugating enzyme E2 N; assay type: functional; remark: listed apart in the source
[10] = inhibitors of intracellular T. cruzi replication, confirmation, NIH3T3 host cells, beta-gal luminescence (AID 2044); assay type: functional, cell-based;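 note: intracellular parasites grown in NIH/3T3 mouse fibroblasts as host cells; luminescent beta-galactosidase reporter signal from transgenic T. cruzi replicating inside host cells; inhibitors lower the luminescence signal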
Bcl-2-related protein A1 = biological target: T6, Bcl-2-related protein A1 (Mus musculus, UniProt Q07440); assay type: functional;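 note: confirmatory dose–response counterscreen on Bfl-1, used to check hits from a UBC13 polyubiquitin inhibitor campaign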
T6 sequence (Q07440 whole entry): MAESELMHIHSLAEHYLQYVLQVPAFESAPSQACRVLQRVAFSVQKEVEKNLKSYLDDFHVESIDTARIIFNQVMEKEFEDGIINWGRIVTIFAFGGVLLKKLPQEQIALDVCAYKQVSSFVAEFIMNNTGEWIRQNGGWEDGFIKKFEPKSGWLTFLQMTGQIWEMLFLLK

[11] = biological target: T7, Short transient receptor potential channel 4 (Mus musculus, UniProt Q9QUQ5); assay: mouse TRPC4 channel activators, dose response, cell-based, HEK293 TRPC4/mu-opioid, Fluo-4 calcium (AID 434937); assay type: functional
T7 sequence (Q9QUQ5 whole entry): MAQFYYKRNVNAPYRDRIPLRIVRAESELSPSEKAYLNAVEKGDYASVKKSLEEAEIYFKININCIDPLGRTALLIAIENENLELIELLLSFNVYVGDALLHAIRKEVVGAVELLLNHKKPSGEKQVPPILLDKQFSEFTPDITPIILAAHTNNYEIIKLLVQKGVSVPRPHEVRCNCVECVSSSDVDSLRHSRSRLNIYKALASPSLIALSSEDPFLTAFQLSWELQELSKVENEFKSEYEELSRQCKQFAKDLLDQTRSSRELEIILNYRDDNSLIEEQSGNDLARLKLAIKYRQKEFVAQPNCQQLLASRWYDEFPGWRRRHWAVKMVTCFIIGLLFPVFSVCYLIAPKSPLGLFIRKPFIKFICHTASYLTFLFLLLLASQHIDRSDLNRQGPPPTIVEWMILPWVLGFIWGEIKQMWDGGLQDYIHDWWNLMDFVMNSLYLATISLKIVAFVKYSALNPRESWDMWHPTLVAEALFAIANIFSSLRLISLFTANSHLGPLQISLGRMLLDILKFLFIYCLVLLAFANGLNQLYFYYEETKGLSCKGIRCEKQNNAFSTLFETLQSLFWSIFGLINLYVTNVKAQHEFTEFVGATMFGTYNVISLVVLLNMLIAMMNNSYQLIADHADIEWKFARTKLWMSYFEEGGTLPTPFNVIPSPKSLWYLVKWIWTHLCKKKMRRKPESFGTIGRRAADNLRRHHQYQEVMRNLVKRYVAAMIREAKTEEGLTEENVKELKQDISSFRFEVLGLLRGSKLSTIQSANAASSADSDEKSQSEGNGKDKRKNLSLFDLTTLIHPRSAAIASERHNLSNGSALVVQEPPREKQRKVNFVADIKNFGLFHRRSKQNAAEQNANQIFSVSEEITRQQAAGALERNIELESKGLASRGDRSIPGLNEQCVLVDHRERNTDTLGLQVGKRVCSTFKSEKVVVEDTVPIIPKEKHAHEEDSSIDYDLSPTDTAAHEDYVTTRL

HEK293 [12] = assay: cells; conditions: Homo sapiens
HEK293 [13] = assay: cells; conditions: Homo sapiens; remark: listed apart in the source
Cytochrome P450 2D6 [14] = biological target: T1, Cytochrome P450 2D6; remark: listed apart in the source
[15] = ZM109 Env clade C HIV-1 fusion inhibitors, dose response, HeLa effector, CEM target cells, luciferase, cherry-pick (AID 652058); assay type: functional, cell-based
[16] = off-target signal loss in HeLa-CEM21 co-culture – HeLa F-luc CTL cells, cherry-picked, counter-screen for HIV-1 Env fusion inhibitor project, dose response (AID 652040); assay type: functional, cell-based;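 note: potency for signal decrease marking cytotoxic or nonspecific inhibition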
[17] = inhibitors of clade B AD8 Env fusion, dose response, cell-based, cherry-pick (AID 652062); assay type: functional;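 note: luciferase signal from cell-cell fusion driven by HIV-1 clade B AD8 Env; potency is for inhibitors of fusion seen as a drop in luminescence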
[18] = inhibitors of HIV Env-driven cell fusion, dose response, cherry-pick (AID 652057); assay type: functional, cell-based

Sequence of Cytochrome P450 3A4 (P08684 whole entry): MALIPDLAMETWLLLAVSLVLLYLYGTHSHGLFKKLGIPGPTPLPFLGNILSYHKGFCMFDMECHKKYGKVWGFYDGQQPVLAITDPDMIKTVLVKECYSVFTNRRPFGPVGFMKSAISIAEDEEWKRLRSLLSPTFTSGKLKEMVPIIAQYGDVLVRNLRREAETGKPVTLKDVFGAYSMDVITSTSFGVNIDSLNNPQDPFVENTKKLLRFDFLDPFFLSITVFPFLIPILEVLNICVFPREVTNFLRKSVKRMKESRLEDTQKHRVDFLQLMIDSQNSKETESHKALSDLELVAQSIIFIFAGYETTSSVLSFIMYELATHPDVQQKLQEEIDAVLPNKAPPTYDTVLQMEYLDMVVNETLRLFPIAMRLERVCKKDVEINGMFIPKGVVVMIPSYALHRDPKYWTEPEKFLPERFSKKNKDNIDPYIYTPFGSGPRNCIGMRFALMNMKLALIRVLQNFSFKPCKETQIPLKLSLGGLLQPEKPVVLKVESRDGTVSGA
Sequence of Cytochrome P450 2C9 (P11712 whole entry): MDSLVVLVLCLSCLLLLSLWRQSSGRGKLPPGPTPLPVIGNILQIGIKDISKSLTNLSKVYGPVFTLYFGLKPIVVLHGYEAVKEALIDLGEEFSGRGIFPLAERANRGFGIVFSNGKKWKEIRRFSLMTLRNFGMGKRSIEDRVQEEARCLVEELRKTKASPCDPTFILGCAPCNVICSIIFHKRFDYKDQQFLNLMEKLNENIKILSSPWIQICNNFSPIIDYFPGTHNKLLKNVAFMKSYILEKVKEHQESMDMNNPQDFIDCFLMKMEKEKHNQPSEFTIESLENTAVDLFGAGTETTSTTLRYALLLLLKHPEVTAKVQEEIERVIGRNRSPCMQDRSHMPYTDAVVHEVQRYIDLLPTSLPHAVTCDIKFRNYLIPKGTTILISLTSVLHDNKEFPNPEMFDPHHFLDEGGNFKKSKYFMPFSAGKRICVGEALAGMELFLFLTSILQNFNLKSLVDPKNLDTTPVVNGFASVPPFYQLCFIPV

NC(=O)c1ccccc1NC(=O)/C=C/c1cccc(Cl)c1
AC50 (Cytochrome P450 2C9): inconclusive

NCC(O)CN.Oc1c(Cl)c(Cl)c(Cl)c(Cl)c1Cl
AC50 (Cytochrome P450 3A4): inactive | AC50 (Cytochrome P450 2C19): inactive | AC50 (Cytochrome P450 2D6 [1]): inactive

CC(=O)Nc1cccc(C(=O)OCC(=O)c2ccc(S(=O)(=O)N3CCCCC3)cc2)c1
EC50 (Beta-galactosidase): > 40 µM (inactive) | IC50 [2]: 18 µM (active)

COc1ccc(-n2cc(CNCc3cccnc3)c(-c3cccc(F)c3)n2)cc1
EC50 [3]: > 260 µM (inactive) | EC50 [4]: > 92.5 µM (inactive) | EC50 [5]: > 92.5 µM (inactive) | EC50 (Mu-type opioid receptor): 70.5 µM (inactive)

COc1cc2nc(NCCCN3CCN(C)CC3)n3nc(-c4ccccc4)nc3c2cc1OC
EC50 [6]: > 60 µM (not active) | IC50 [7]: 17.6 µM (active) | AC50 [8]: 2.98 µM (active) | IC50 [9]: 6.25 µM (active) | EC50 [10]: 1.87 µM (active) | IC50 (Bcl-2-related protein A1): > 20 µM (inactive)

Cn1c(CN2CCN(c3cccc(Cl)c3)CC2)nc2ccccc21
EC50 [4]: > 92.5 µM (inactive) | EC50 [5]: > 92.5 µM (inactive) | EC50 (Mu-type opioid receptor): 15.7 µM (inactive) | EC50 [11]: 2.11 µM (active)

CN(C)S(=O)(=O)n1cc(/C=C(\NC(=O)c2ccccc2Cl)C(=O)N2CCCC2)c2ccccc21
EC50 (HEK293 [12]): > 59.6 µM (inactive) | EC50 (HEK293 [13]): > 59.6 µM (inactive)

Cc1ccccc1-c1cc(Nc2ccccc2)ncn1
AC50 (Cytochrome P450 2D6 [14]): 39.8 µM (inconclusive) | AC50 (Cytochrome P450 3A4): inconclusive

N=c1ccn2c(n1)O[C@@H]1[C@@H](O)[C@H](CO)O[C@H]12
AC50 (Cytochrome P450 3A4): inconclusive | AC50 (Cytochrome P450 2C9): inconclusive | AC50 (Cytochrome P450 2C19; read-out: AC50): 0.0316 µM (inconclusive)

CC1CCC(NC(=O)CCn2ccc3cc(S(=O)(=O)N4CCCC4)ccc32)CC1 (stereo not drawn)
AC50 [15]: 0.999 µM (active) | AC50 [16]: 5.19 µM (active) | EC50 (HEK293 [12]): > 59.6 µM (inactive) | EC50 (HEK293 [13]): > 59.6 µM (inactive) | AC50 [17]: 4.28 µM (active) | AC50 [18]: 3.53 µM (active)
